Experimental data reported in patent US20220409617A1, “Drug Formulations and Methods of Treatment for Metabolic Disorders” (The Regents of the University of California, priority 2019, published 2022).

Test system: hepatic lipid accumulation
Assay: Hepatic steatosis and lipidomic profiling of liver and quadriceps muscle
Format: in vivo, mouse
Settings: HFD-fed mice
Description: Lipids were extracted from liver and quadriceps tissue using a modified MTBE method (Matyash et al, 2008; Abbott et al, 2013). Briefly, 10 mg/ml of tissue was homogenized in ice-cold 150 mM ammonium acetate using a bead homogenizer (1.4 mm ceramic) kept below 4° C. using liquid nitrogen vapor (Precellys 24 homogenizer with Cryolys cooling unit, Bertin Technologies, Montigny-le-Bretonneux, France). From this, 20 μl of homogenized tissues were added to glass vials containing MTBE and methanol (3:1 v/v, with 0.01% BHT), alongside 10 μl of an internal standard solution containing 10 μM each: phosphatidylcholine (PC) 17:0/17:0, phosphatidylethanolamine (PE) 17:0/17:0, phosphatidylserine (PS) 17:0/17:0, phosphatidylglycerol (PG) 17:0/17:0, lysophosphatidylcholine (LPC) 17:0, lysophosphatidylethanolamine (LPE) 14:0, ceramide (Cer) d18:1/17:0, dihydrosphingomyelin d18:0/12:0, diacylglycerol (DAG) 17:0/17:0, D5-triacylglycerol (TAG) 48:0, and cholesteryl ester (CE) 22:1. Samples were allowed to rotate at 4° C. overnight prior to the addition of 1 volume of ice-cold 150 mM ammonium acetate. Samples were vortexed thoroughly prior to centrifugation (2000×g, 5 min) to enable phase separation. […]
Extracted lipids were analyzed by liquid chromatography-mass spectrometry (LC-MS) using a Dionex Ultimate 3000 LC pump and Q Exactive Plus mass spectrometer equipped with a heated electrospray ionization (HESI) source (Thermo Fisher Scientific). […] Data were acquired in full scan/data-dependent MS2 mode (full scan resolution 70,000 FWHM, max ion injection time 50 ms, scan range m/z 200-1500), with the 10 most abundant ions being subjected to collision-induced dissociation using an isolation window of 1.5 Da and a normalized stepped collision energy of 15/27 eV, with product ions detected at a resolution of 17,500. […]
Lipids were analyzed using MS-DIAL (Tsugawa et al, 2015). Lipids were detected in both positive and negative ionization modes using a minimum peak height of 1×10^4 cps, a MS1 tolerance of 5 ppm and MS2 tolerance of 10 ppm, and a minimum identification score of 50%. […]

CCCCCCCCc1ccc([C@H]2CCN[C@@H]2CO)cc1.Cl [compound 893] was tested, and the Hepatic steatosis (120 mg/kg) was “eliminated hepatic steatosis”, the “Liver triglyceride and ceramide levels” value (treated for 4 weeks) was “restored normal triglyceride and ceramide levels in the liver” and the Muscle ceramide levels (treated for 4 weeks, quadriceps) was “ceramide levels trended lower in muscle”.
